The values below come from article PMC5024137 (Scientific Reports, 2016).

One may read the Km as the concentration of substrate that gives half-maximal velocity.

For data set [1], the target named is T1, hOATP2B1 (Homo sapiens, UniProt O94956).
T1 sequence (O94956 1-709): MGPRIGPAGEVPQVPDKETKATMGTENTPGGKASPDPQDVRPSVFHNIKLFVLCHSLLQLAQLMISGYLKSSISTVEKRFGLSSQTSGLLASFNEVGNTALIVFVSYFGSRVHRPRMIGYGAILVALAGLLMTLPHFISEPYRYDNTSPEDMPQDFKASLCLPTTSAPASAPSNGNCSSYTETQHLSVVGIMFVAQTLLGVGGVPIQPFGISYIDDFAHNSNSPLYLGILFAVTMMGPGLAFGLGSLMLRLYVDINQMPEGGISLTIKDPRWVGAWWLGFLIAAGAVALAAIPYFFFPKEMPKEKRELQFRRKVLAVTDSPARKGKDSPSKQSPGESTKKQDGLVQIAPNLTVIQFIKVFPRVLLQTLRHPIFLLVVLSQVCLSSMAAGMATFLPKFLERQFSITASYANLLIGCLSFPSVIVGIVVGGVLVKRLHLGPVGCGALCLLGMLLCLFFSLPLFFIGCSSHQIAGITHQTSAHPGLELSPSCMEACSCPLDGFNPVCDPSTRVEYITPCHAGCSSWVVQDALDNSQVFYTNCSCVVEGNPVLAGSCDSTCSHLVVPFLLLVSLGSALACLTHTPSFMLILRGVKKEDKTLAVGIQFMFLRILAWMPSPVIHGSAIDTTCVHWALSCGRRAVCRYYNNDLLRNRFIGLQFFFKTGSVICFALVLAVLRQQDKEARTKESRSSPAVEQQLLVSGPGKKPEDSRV
Nature of the data set: Cellular uptake assay: intracellular accumulation in HEK293-hOATP2B1 vs HEK293-MOCK cells (HPLC-MS/MS). The following applies: 0.25 μM, HBSS pH7.4, 37 °C, 20 min.

Data set [2] deals with T1, hOATP2B1. Nature of the data set: pH dependent uptake of morphine and M6G in HEK293-hOATP2B1 cells. The following applies: 0.25 μM, HBSS, 37 °C, 20 min.
Substrate in data set [3]: CN1CC[C@]23c4c5ccc(O)c4O[C@H]2[C@@H](O[C@@H]2O[C@H](C(=O)O)[C@@H](O)[C@H](O)[C@H]2O)C=C[C@H]3[C@H]1C5
Nature of the data set: cells, lysate or membranes named. The following applies: other: HEK293-hOATP2B1 cells, 0.25 to 100 μM, pH7.4, 37 °C, 20 min, pH 7.4.

On to `C[C@]12CC[C@@H]3c4ccc(OS(=O)(=O)[O-])cc4CC[C@H]3[C@@H]1CCC2=O.[Na+]` [E-3-S, estrone-3-sulfate sodium salt], for which the “increase of intracellular accumulation in HEK293-hOATP2B1 compared to HEK293-MOCK” value (“increase of intracellular accumulation” for short) in data set [1] lay in the range of 2 to 3 fold.

For `CN1CC[C@]23c4c5ccc(O[C@@H]6O[C@H](C(=O)O)[C@@H](O)[C@H](O)[C@H]6O)c4O[C@H]2[C@@H](O)C=C[C@H]3[C@H]1C5` [M3G, morphine-3-glucuronide], the “increase of intracellular accumulation” value in data set [1] is recorded as “didn’t show any differences”.

On to `CN1CC[C@]23c4c5ccc(O)c4O[C@H]2[C@@H](O[C@@H]2O[C@H](C(=O)O)[C@@H](O)[C@H](O)[C@H]2O)C=C[C@H]3[C@H]1C5` [M6G, morphine-6-glucuronide], for which the “concentration in HEK293-hOATP2B1 cells at pH6.0 relative to pH7.4” value in data set [2] was determined as 2.05 fold. The “increase of intracellular accumulation” value in data set [1] is on record as “more than 2 fold”. In addition, the values for the intracellular accumulation in data set [1] (HEK293-MOCK cells) and in data set [1] (HEK293-hOATP2B1 cells) were 0.26 nM and 0.71 nM, respectively. For `CC(C)n1c(/C=C/C(O)CC(O)CC(=O)O)c(-c2ccc(F)cc2)c2ccccc21` (centres unmarked) [fluvastatin], the “increase of intracellular accumulation” value in data set [1] was 2 to 3 fold.

B1: hOATP2B1 (Homo sapiens) (protein)
chain: T1 sequence (O94956 1-709)
Consider B1, for which the Km in data set [3] was 80.31 ± 21.75 µM.
